This passage reports half-life results from US9827326B2, “Polymer-sunitinib conjugates” (Nektar Therapeutics, priority 2010, dated 2017).

Each structure is given as a SMILES string. Like-named read-outs stand apart in the source and are kept apart here.

This series in a line: In vitro release of conjugates in phosphate buffer (Method E). It is filed as physicochemical. The method, then:
In vitro release for conjugates in buffer: In separate containers Compound 2a (˜0.1-0.5 mg/mL), Compound 3a (˜0.5-5 mg/mL) and Compound 4a (˜0.2-1 mg/mL) were dissolved in 100 mM phosphate buffer pH 7.5 (or other pH values as indicated). The conjugates were filtered through a 0.2 micron filter into a HPLC vial. The HPLC sample vials were incubated at 37° C. and injected at various intervals on a HPLC system with C18 silica column applying an acetonitrile gradient with 0.1% TFA; retention times observed were sunitinib ˜3.5 minutes and conjugates either ˜2.2 minutes for Compound 2a or ˜10.8 minutes for Compounds 3a or 4a. Release data for the t1/2 values were obtained from the slope of the linear fit to a plot of ln(A(conjugate)/A0(conjugate)) vs. time, according to the first order rate law.
The half-lives observed for several sunitinib conjugates of the invention were determined in buffer and plasma according to the descriptions in “Method E” provided in the Experimental.

Usually half-life stands for the time needed for the level to fall by half in the phase considered. As for `CCN(CC)CCN(C(=O)OCC(O)CO)C(=O)c1c(C)[nH]c(/C=C2\C(=O)Nc3ccc(F)cc32)c1C` (centres unmarked) [Compound 1e, (Z)-2,3-dihydroxypropyl 2-(diethylamino)ethyl(5-((5-fluoro-2-oxoindolin-3-ylidene)methyl)-2,4-dimethyl-1H-pyrrole-3-carbonyl)carbamate], the half-life by setting is: (100 mM phosphate buffer pH 7.5, 37° C., read-out: Release half-life, Phosphate pH 7.5) ~3 min; (phosphate buffer pH 6.8, 37° C., read-out: Release half-life, Phosphate pH 6.8) ~10 min.
